Assay results from patent US8901276B2, “Peptide reagents and methods for detection of colon dysplasia” (The Regents of the University of Michigan, priority 2010, dated 2014).
Where no end group is shown, it is not given here. The star is where a group is joined. FITC = O=C1OC2(c3ccc(O)cc3Oc3cc(O)ccc32)c2ccc(NC(=S)*)cc21

What was measured:
colonic adenomas = test: In vivo imaging with multi-spectral scanning fiber endoscope; design: species or system CPC; Apc mice; conditions: for binding to colonic dysplasia/adenomas on fluorescence images / Average T/B: 100 μM topical, 5 min; for Average T/B: Multi-Spectral Scanning Fiber Endoscopy Results, mean ± SD; for range of T/B ratios: dysplasia versus normal appearing adjacent colonic mucosa
Excerpt: A scanning fiber endoscope system was adapted for fluorescence detection in three channels (RGB) using excitation at 440 (NDHB510APA, Nichia, Tokyo, Japan), 532 (FTEC532-V10TA0, Blue Sky Research, Milpitas, Calif.) and 635 (FMXL635-017TA0B, Blue Sky Research) nm using an RGB coupler (OZ Optics, Ottawa, Canada). The three laser sources are delivered simultaneously into the scanning fiber, and focused to the same point on the illumination plane using a custom lens assembly, as shown in the schematic in FIG. 2A. The laser power coming out of the distal tip of the endoscope is <2 mW for each channel, a level consistent with a non-significant risk (NSR) determination by the U.S. Food and Drug Administration (FDA, 21 CFR 812) for future human clinical studies. The amplitude of the spiral scanner was reduced to achieve a divergence angle of 70 deg (max 100 deg) to minimize noise in the periphery of the image. Fluorescence is collected by a ring of 12 step-index plastic optical fibers (POF) with numerical aperture (N.A.) of 0.63 and outer diameter of 250 μm (Toray Industries Inc, Tokyo, Japan).
(§1) The CPC;Apc mice were first imaged with white light using a non-scanning endoscope (Karl Storz Veterinary Endoscopy, Goleta, Calif.) to assess for the presence of colonic adenomas that have a size between ˜0.5 to 4 mm in diameter. Any adenomas were rinsed of debris including stool and mucous, by delivering tap water through a 3 Fr instrument channel. Then, the fluorescent-labeled peptides were delivered topically at a concentration of 100 μM in 1×PBS in a volume of 1 mL to the distal 4 cm of the colon and rectum. The peptides were incubated for 5 minutes and then the unbound peptides were rinsed away with tap water 3 times. The colon was inspected for any residual peptide, and when clean, the colon was insufflated with air and imaged with the multi-spectral scanning fiber endoscope.
Videos collected during endoscopy were exported as avi video files and converted into sequential png images using Apple QuickTime. White light and fluorescence images for each adenoma were analyzed in NIH Image J. The white light image was utilized to draw a region of interest (ROI) around the adenoma or adjacent normal appearing colonic mucosa which was then superimposed onto the fluorescence image. The mean fluorescence intensities were calculated for each ROI, and a target/background (T/B) ratio was calculated for each colonic adenoma and compared to the surrounding normal appearing mucosa.

normal colonic mucosa = test: In vivo imaging with multi-spectral scanning fiber endoscope, normal mucosa; design: species or system mice; conditions: mouse
Procedure: as §1

Hs738.St/Int. cells [1] = test: Fluorescence microscopy of FITC-labeled peptides; format: cell-based, human; conditions: 10 μM, 15 min
Procedure: (§2) Preferential binding of the FITC-Peptide 2 and FITC-Control peptide 2 to target and non-target cells was also validated via fluorescence microscopy. HT29 and Hs738.St/Int. cells were grown in 22 mm2 cover slips with ˜80% confluence. Blocking of non-specific binding was performed by adding PBS/0.5% BSA for 30 min. The cells were then incubated with 10 μM of FITC-Peptide 2 or FITC-Control peptide 2 either at 4 or 37° C. for 15 min followed by 1 μg/mL Hoechst dye (Sigma Aldrich, St. Louis, Mo.) along with the peptide. The cells were washed with PBS for 3 times and fixed with 4% paraformaldehyde at room temperature for 10 min. After fixation, the cells were washed again with PBS (1×) and mounted with ProLong® Gold reagent (Invitrogen, Carlsbad, Calif.) and the fluorescence images were acquired with Leica Confocal system. (Leica Microsystems GMBH, Wetzlar, 35578 Germany)
(§3) Preferential binding of the FITC-labeled candidate and control peptides to the target and non-target cells was further validated via fluorescence microscopy. HT29 and Hs738.St/Int. cells were grown on cover slips to ˜80% confluence. Blocking of non-specific binding was performed by adding PBS/0.5% BSA for 30 min. The cells were then incubated with 10 μM of 5-FITC-labeled candidate or control peptide at either 4 or 37° C. for 15 min followed by staining with 1 μg/mL Hoechst dye (Sigma Aldrich, St. Louis, Mo.) along with the peptide. The cells were washed 3× with PBS and fixed with 4% paraformaldehyde at RT for 10 min. After fixation, the cells were washed again with PBS and mounted with ProLong Gold reagent (Invitrogen, Carlsbad, Calif.) and fluorescence images were collected with confocal microscopy (Leica TCS SP5 Microsystems, Bannockburn, Ill.).

[2] = test system: human colon surgical specimens (normal mucosa, dysplastic adenomas, carcinoma); test: Binding of synthetic peptides to human surgical specimens of colon cancer (Example 9); conditions: 10 μM, 15 min, RT
Procedure: Fresh frozen sections from human surgical specimens were cryosectioned with […] and used to localize peptide binding. The sectioned tissues were air dried and washed with PBS 1×. Sections were incubated with FITC labeled peptides (10 μM) for 15 min at RT. The sections were washed three times each for 1 min in PBS and fixed with 4% paraformaldehyde for 10 min. After fixing, the sections were washed again (1×) and mounted with ProLong® Gold reagent with DAPI (Invitrogen, Carlsbad, Calif.). The sections were imaged under a confocal microscope ([…]). All surgical specimens were obtained from the tissue procurement core of University of Michigan with approval from the Institutional Review Board (IRB).

HT29 cells [3] = test: Flow cytometry of FITC-labeled peptides; format: cell-based, human; conditions: 10 μM, 60 min, 4° C., FITC channel
Procedure: (§4) Preferential binding of FITC-Peptide 2 to target cells was validated using flow cytometry. HT29 and Hs738.St/Int. (˜2×10^5) cells were grown, detached, and blocked as described above. These cells were incubated with the FITC-Peptide 2 or -Control peptide 2 (10 μM) for 60 min at 4° C. with continuous agitation. The cells were then washed (3×) with cold PBST followed by immediate fixing for 10 min. with 4% paraformaldehyde. The cells were washed again (1×) with PBS and resuspended in 1 mL of PBS. Flow cytometry was performed using FACSDiVa (BD® LSRII, BD Biosciences, San Jose, Calif.) and analyzed using Flowjo analysis program (Tree Star Inc., Ashland, Oreg.).
(§5) Preferential binding of the candidate peptide labeled with 5-FITC to the target and control cells was also validated using flow cytometry. HT29 and Hs738.St/Int. (˜2×10^5) cells were grown, detached, and blocked, as described above. These cells were incubated with the 5-FITC labeled candidate or control peptide (10 μM) for 60 min at 4° C. with continuous agitation. The cells were then washed 3× with cold PBST followed by immediate fixation for 10 min with 4% paraformaldehyde. The cells were washed again with PBS and resuspended in 1 mL of PBS. Flow cytometry was performed using FACSDiVa (BD® LSRII, BD Biosciences, San Jose, Calif.) and analyzed using Flowjo analysis program (Tree Star Inc. Ashland, Oreg.).

Hs738.St/Int. cells [4] = test: Flow cytometry of FITC-labeled peptides; format: cell-based, human; conditions: 10 μM, 60 min, 4° C.
Procedure: as §4, §5

[5] = test system: human colonic mucosa sections (normal, dysplasia, adenocarcinoma); test: Peptide immunohistochemistry on frozen sections (Example 11); conditions: 10 μM, 15 min, RT
Procedure: All specimens were obtained with approval from the University of Michigan Institutional Review Board (IRB). Freshly resected specimens of human colonic mucosa were frozen in OCT and sectioned with 10 μm thickness. The sections were then air dried, washed with PBS, and incubated with the FITC-labeled peptides at a concentration of 10 μM for 15 min at RT. The sections were washed 3× for 1 min in PBS and fixed with 4% paraformaldehyde for 10 min. After fixation, the sections were washed again and mounted with ProLong Gold reagent with DAPI (Invitrogen, Carlsbad, Calif.). The sections were imaged under a confocal microscope (Leica TCS SP5 Microsystems, Bannockburn, Ill.). Adjacent sections were sent for routine histology. The intensity for each image was calculated using Matlab (Mathworks, Natick, Mass.).

HT29 cells [6] = test: Fluorescence microscopy of FITC-labeled peptides; format: cell-based, human; conditions: 10 μM, 15 min, 4° C.
Procedure: as §2
In addition, the ability of the FITC-Peptide 2 peptide to internalize within the HT29 cells was tested. HT29 cells were incubated for 15 min. at either 4° C. or 37° C. in the presence of 10 μM FITC-Peptide 2.
as §3

[7] = test system: human EMR specimens (normal mucosa, polypoid and non-polypoid dysplasia); test: Stereomicroscopic validation on EMR specimens; conditions: 10 μmol/L, 5 min, mean±SEM
Excerpt: Binding of the candidate or control peptide to the dysplasia on freshly resected human specimens via endoscopic mucosal resection (EMR) was validated on fluorescence stereomicroscopy. Patients with previously diagnosed polypoid and non-polypoid dysplasia who were referred for EMR were recruited. Institutional review board approval was obtained from the VA Palo Alto Health Care System, and informed consent was acquired. After resection, the specimens were rinsed in PBS 3× to remove debris and mucous. An autofluorescence image was acquired before incubating with the peptide. Then, specimens were incubated with either the FITC-labeled candidate or control peptide at a concentration of 10 μmol/L for 5 min. The unbound peptide was rinsed off with PBS 3×. The mucosal surface of the specimen was oriented face up, and a dab of ink was applied to the upper border as a landmark to register the white light and fluorescence images with histology. A white light image was collected from the specimen with and without an overlying transparent grid that contains squares with dimensions of 1×1 mm^2. Fluorescence images were collected at 500 milliseconds per frame (with the overlying grid removed) using a stereomicroscope (Olympus SZX-16 equipped with Rolera camera; Olympus Corp, Tokyo, Japan) using 477 to 500 nm excitation and 500 to 630 nm emission. A correction to the fluorescence images was performed because the intensity at the center of the image is greater than that in the periphery due to differences in distance. A fluorescence image was collected from a solution of 10 μM FITC in a plate to provide a uniform target for calibration, allowing for quantitative analysis over the entire field of view. After the fluorescence intensities were corrected, lines along the length of the specimen spaced by 2-mm intervals in each image were identified using the grid from the white light image. The mean intensity from each 1×1 mm^2 interval along this length of tissue was calculated using Matlab and compared with histology. Histopathologic interpretation was performed by a gastrointestinal pathologist (HA) who classified the specimens stained with H&E as normal colonic mucosa, dysplasia, or adenocarcinoma. The histopathologic evaluation of the EMR specimens was conducted at VA Palo Alto Health Care System (AM) and classified as either dysplasia or normal mucosa.

HT29 cells [8] = test: Competitive inhibition assay (bound phage counts); format: cell-based, human; conditions: up to 200 μM unlabeled peptide
Procedure: Bound phage counts were performed to observe the competitive inhibition effect of the synthetic candidate heptapeptide with its representative phage counterpart in triplicate. HT29 cells (5×10^6) were detached with enzyme free cell dissociation buffer and blocked with 1% BSA containing PBS for 30 min at 4° C. The cells were washed and incubated with phage (2×10^11) for 15 min. Then, the cells were washed with PBS and immediately incubated with different concentrations of unlabeled peptide ranging from 10 to 200 μM for an additional 15 min. Cells were washed 3× and the bound phages were recovered as described above in bound phage counts. The bound phages were then tittered and counted, and the relative inhibition rate was calculated. The inhibition activity of no-insert WT phage by synthetic candidate peptide and phage with unrelated synthetic control peptide were used as negative controls.

Row | Substance | binding to colonic dysplasia/adenomas on fluorescence images (colonic adenomas) | Average T/B (colonic adenomas) | range of T/B ratios (colonic adenomas) | signal on normal colonic mucosa (normal colonic mucosa) | binding to Hs738.St/Int. cells on microscopy (Hs738.St/Int. cells [1]) | binding to specimens classified from normal to carcinoma [2] | total HT29 cell population bound (HT29 cells [3]) | total HT29 cell population bound (HT29 cells [3]; listed as control peptide) | binding to Hs738.St/Int. cells on flow cytometry (Hs738.St/Int. cells [4]) | staining of any specimen (normal, dysplasia, adenocarcinoma) [5] | binding to the surface of HT29 cells (HT29 cells [6]) | fluorescence intensity on stereomicroscopy ([7]; non-polypoid dysplasia) | fluorescence intensity on stereomicroscopy ([7]; normal mucosa) | fluorescence intensity on stereomicroscopy ([7]; polypoid dysplasia) | inhibition of KCCFPAQ phage binding to HT29 cells (HT29 cells [8])
1 | AKPGYLS-TAMRA: AKPGYLS labeled with 5-Carboxytetramethylrhodamine (TAMRA) (also: TAMRA label, site not given here) | clearly displayed specific binding | 1.67±0.12 | 1.50-1.78 | minimal signal | – | – | – | – | – | – | – | – | – | – | –
2 | GGGAGGGAGGGK (FITC)-NH2 (GGGAGGGAGGGK(FITC)-NH2; N-terminus assumed; SMILES C[C@H](NC(=O)CNC(=O)CNC(=O)CN)C(=O)NCC(=O)NCC(=O)NCC(=O)N[C@@H](C)C(=O)NCC(=O)NCC(=O)NCC(=O)N[C@@H](CCCCNC(=S)Nc1ccc2c(c1)C(=O)OC21c2ccc(O)cc2Oc2cc(O)ccc21)C(N)=O) [FITC-Control peptide 2, glycine/alanine control peptide, reference compound] | – | – | – | – | did not bind | not able to bind with any of the specimens | 18.6% | 2.3% | bound minimally | did not stain any of the specimens | did not bind | 21.8±4.1 AU | 16.5±2.5 AU | 14.0±3.0 AU | No inhibition
3 | KCCFPAQ-DEAC: KCCFPAQ labeled with 7-Diethylaminocoumarin-3-carboxylic acid (DEAC) (cysteine pairing not given here; also: DEAC label, place not given here) | clearly displayed specific binding | 1.71±0.19 | 1.50-2.06 | minimal signal | – | – | – | – | – | – | – | – | – | – | –
